Test system: 922993-354-T-J3-PDC complex spheroids, viability
Test: Anticancer human tumor 922993-354-T-J3-PDC patient-derived endometrial carcinoma cell line growth inhibition [GQUAD]
Conditions: for IC50: curve of first compound; for viability, T/C: stronger effect = lower value
Excerpt: DNA G-quadruplex Stabilizer Agents in Combinations in Complex Spheroids
A high-throughput screen of multi-cell type tumor spheroids was designed to identify active combinations of DNA G-quadruplex stabilizer agents and targeted small molecules. Complex spheroids include a stromal component modeled by human endothelial cells (HUVEC) and fibroblasts modeled by human mesenchymal stem cells (MSCs). The concentration ranges selected for each drug and investigational agent were based upon clinically achievable concentrations if the clinical Cmax of the agent was known.
Compounds. The drugs and investigational agents: pidnarulex (CX-5461; NSC782164), APTO-253 (NSC789042), BRACO-19 (NSC847499), peposertib (NSC802822), ceralasertib (NSC780249), elimusertib (NSC800525), camonsertib (NSC841442), AZD-1390 (NSC803789), olaparib (NSC753686), talazoparib (NSC767125), ART-558 (NSC835418), sotorasib (NSC818433), MRTX-1133 (NSC836407), SN-38 (NSC673596), topotecan (NSC609699), etoposide (NSC141540), doxorubicin (NSC123127), gemcitabine (NSC613327), 5-fluorouracil (NSC19893), paclitaxel (NSC125973), vemurafenib (NSC761431), panobinostat (NSC761190), R-306465 (JNJ-16241199; NSC773264), adavosertib (NSC754352), TP-3654 (NSC805149), carboplatin (NSC241240), KSQ-4279 (NSC840948), and staurosporine (NSC755774) were obtained from the National Cancer Institute (NCI) Developmental Therapeutics Program Chemical Repository (34). The FDA-approved anticancer drug set is available from the NCI Developmental Therapeutics Program. […] The stock solutions were prepared in dimethyl sulfoxide (DMSO, Sigma-Aldrich, St. Louis, MO, cat. D2650) at 800-fold the tested concentration and stored at -70 degrees C prior to their use. All drugs and investigational agents were tested over a range starting from a high concentration at or near the clinical Cmax and decreasing in half-log increments. If the clinical Cmax for an agent had not been determined, the highest concentration tested was 10 microM.
2.3 Cell Culture. All cells were maintained in an incubator at 37 degrees C and 5% CO2 with 95% humidity. The PDC lines were cultured according to standard operating procedures established by the NCI PDMR. All PDCs were thawed and cultured in Matrigel-coated flasks prepared with a working solution of 1X Ham's F-12 nutrient mix, without supplementation (Invitrogen, cat. 11765054), 100 U/mL penicillin-streptomycin (Invitrogen, cat. 15140122), and 2.5% Matrigel (Corning Inc., cat. 354248) for the first three passages. The 857933-349-R-J2-PDC line was cultured in 6C/Colon 1B media, which includes advanced DMEM/F-12 (Thermo Fisher Scientific, cat. 12634028), 10 mM HEPES (Thermo Fisher Scientific, cat. 15630080), 1X GlutaMAX supplement (Thermo Fisher Scientific, cat. 35050061), 0.1 mg/mL primocin (InvivoGen, cat. ant-pm-2), 10% defined fetal bovine serum, heat inactivated (HyClone Laboratories Inc., cat. SH30070.03HI), 50% L-WRN conditioned media (ATCC, cat. CRL-3276), 1.25 mM N-Acetyl-L-cysteine (Sigma-Aldrich, cat. A9165), 10 mM nicotinamide (Sigma-Aldrich, cat. N0636), 1X B-27 supplement (Thermo Fisher Scientific, cat. 17504044), 1X N-2 supplement (Thermo Fisher Scientific, cat. 17502048), 10 microM Y-27632 dihydrochloride (Tocris Bioscience, cat. 1254), and 50 ng/mL human EGF recombinant protein (Thermo Fisher Scientific, cat. PHG0311). The 485176-168-R4-J1-PDC line was cultured in Panc media, which includes all 6C/Colon 1B media components plus 100 ng/mL human FGF-10 (Thermo Fisher Scientific, cat. 100-26), 500 nM SB-431542 (Selleckchem, cat. S1067), and gastrin (Tocris, cat. 3006).
[…]
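Also: spheroids exposed to compounds for seven days.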
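For viability, T/C in this document: 100% = DMSO vehicle control viability.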

`CC1COCCN1c1cc(-c2ccnn2C)c2ccnc(-c3ccn[nH]3)c2n1` (configuration not stated) + CN(C)c1ccc(Nc2c3ccc(NC(=O)CCN4CCCC4)cc3nc3cc(NC(=O)CCN4CCCC4)ccc23)cc1 was tested, and the IC50 (second compound 0.0316 µM) was 260 nM, the IC50 (second compound 0.1 µM) was 190 nM and the IC50 (second compound 0.316 µM) was 175 nM. The IC50 (second compound 1 µM) was 278 nM, the IC50 (second compound 3.16 µM) was 176 nM and the IC50 (second compound 10 µM) was 396 nM. The viability, T/C (second compound 0.0316 µM, first compound 0.0316 µM) was 98.4%, the viability, T/C (second compound 0.0316 µM, first compound 0.1 µM) was 73.4% and the viability, T/C (second compound 0.0316 µM, first compound 0.316 µM) was 50.3%. The viability, T/C (second compound 0.0316 µM, first compound 1 µM) was 16.7%, the viability, T/C (second compound 0.0316 µM, first compound 3.16 µM) was 18% and the viability, T/C (second compound 0.0316 µM, first compound 10 µM) was 20%. The viability, T/C (second compound 0.1 µM, first compound 0.0316 µM) was 110%, the viability, T/C (second compound 0.1 µM, first compound 0.1 µM) was 68.2% and the viability, T/C (second compound 0.1 µM, first compound 0.316 µM) was 36.1%. It also gave a viability, T/C (second compound 0.1 µM, first compound 1 µM) of 18.2%, a viability, T/C (second compound 0.1 µM, first compound 3.16 µM) of 20.2% and a viability, T/C (second compound 0.1 µM, first compound 10 µM) of 12.3%. It also gave a viability, T/C (second compound 0.316 µM, first compound 0.0316 µM) of 105%, a viability, T/C (second compound 0.316 µM, first compound 0.1 µM) of 58.1% and a viability, T/C (second compound 0.316 µM, first compound 0.316 µM) of 46.9%. The viability, T/C (second compound 0.316 µM, first compound 1 µM) was 16.8%, the viability, T/C (second compound 0.316 µM, first compound 3.16 µM) was 16.5% and the viability, T/C (second compound 0.316 µM, first compound 10 µM) was 19.6%. It also gave a viability, T/C (second compound 1 µM, first compound 0.0316 µM) of 84.8%, a viability, T/C (second compound 1 µM, first compound 0.1 µM) of 64.2% and a viability, T/C (second compound 1 µM, first compound 0.316 µM) of 54.2%. The viability, T/C (second compound 1 µM, first compound 1 µM) was 22.9%, the viability, T/C (second compound 1 µM, first compound 3.16 µM) was 19.1% and the viability, T/C (second compound 1 µM, first compound 10 µM) was 21.4%. It also gave a viability, T/C (second compound 3.16 µM, first compound 0.0316 µM) of 119%, a viability, T/C (second compound 3.16 µM, first compound 0.1 µM) of 52.7% and a viability, T/C (second compound 3.16 µM, first compound 0.316 µM) of 54.3%. For the same compound, the viability, T/C (second compound 3.16 µM, first compound 1 µM) was 18.2%, the viability, T/C (second compound 3.16 µM, first compound 3.16 µM) was 21.3% and the viability, T/C (second compound 3.16 µM, first compound 10 µM) was 22.4%. It also gave a viability, T/C (second compound 10 µM, first compound 0.0316 µM) of 130%, a viability, T/C (second compound 10 µM, first compound 0.1 µM) of 79.8% and a viability, T/C (second compound 10 µM, first compound 0.316 µM) of 65.2%. For the same compound, the viability, T/C (second compound 10 µM, first compound 1 µM) was 25.6%, the viability, T/C (second compound 10 µM, first compound 3.16 µM) was 21.2% and the viability, T/C (second compound 10 µM, first compound 10 µM) was 19.6%.
